Data published in patent US8580321B2, “Method for reducing the effects of chemotherapy using flagellin related polypeptides” (priority 2003, dated 2013).

Columns and labels:
[1] = system: small intestinal crypts; test: BrdU incorporation in small intestinal crypts; assay type: in vivo, mouse
From the text: Besides a direct inhibition of apoptosis, temporary halt of proliferation followed by repair may be an alternative mechanism of radioprotection, and has been described for other radioprotectors such as TGF-β3 (Booth D., et. al., Int J Cancer. 2000 Apr. 1; 86(1):53-9). Accordingly, we decided to examine the possible influence of CBLB502 (AA′) on the proliferative activity of the cells in small intestine (with and without irradiation) during the first hours after its administration (FIG. 32). CBLB502 or PBS was injected i.p. in mice, followed after 30 min by 15 Gy irradiation (if used). 2 hr after injection (1.5 hr after irradiation if it was applied), BrdU was injected intraperitoneally. Samples of small intestine were obtained after additional 1.5 hours.
We next determined the duration of the CBLB502-induced growth arrest in small intestine. CBLB502 or PBS was injected i.p. in mice, BrdU was injected 1 or 4 hours later and samples of small intestine were obtained after additional 1.5 hours from several mice (samples from three mice are shown) (FIG. 33).

[2] = Cisplatinum-induced weight loss in FVB mice; assay type: in vivo, mouse; conditions: CBLB502 0.04 mg/kg s.c. 30 min prior to cisplatinum 10 mg/kg i.p., n=3
[3] = system: vascular endothelial cells of villi; test: TUNEL assay of apoptosis in intestinal tissue after irradiation; assay type: in vivo, mouse; conditions: 5 hours post irradiation, pretreated mice
From the text: In addition to purely histological observation of cell death and survival, we performed more specialized tests of apoptotic cell death in intestinal tissue using a TUNEL assay, which detects apoptosis-associated DNA fragmentation. These experiments allowed us to define with a high degree of probability cellular populations that are depleted by radiation and rescued by flagellin fragment treatment. The earliest radiation-induced alterations detectable in the small intestine after treatment with IR is apoptosis occurring in vascular endothelial cells of villi, which is seen as early as 5 hours post treatment (FIG. 17B). […] Effective protection of endothelial cells of the small intestine by the flagellin fragment may be due to expression of TLR5 in these cells.

[4] = Blood urea (QuantiChrom Urea Assay Kit) as renal toxicity of cisplatinum; conditions: 0.04 mg/kg s.c., Day 4 post-treatment, n=3
From the text: Urea was detected in mouse blood serum at Day 4 post-treatment using a QuantiChrom Urea Assay Kit (BioAssay Systems).

[5] = system: MeI-7, MeI-29, HCT116, HT1080, NKE and MAEC cells; test: Growth inhibition assay after gamma-irradiation in multiple cell lines; assay type: cell-based; conditions: 2 μg/ml, irradiated (10, 15 Gy) or not, 48 hours
Procedure: Based on the results using A549 cells, several additional tumor cell lines (human melanoma MeI-7 and MeI-29, colon cancer HCT116, […] HT1080), immortalized kidney epithelial cells (NKE) and normal mouse aortal endothelial cells (MAEC)) were tested in growth inhibition assay after 10 and 15 Gy of gamma-irradiation, as compared with intact control, with or without pretreatment with CBLB502. Cells were seeded in 96-well plates night before the treatments. CBLB502 (2 μg/ml) was added to the wells 4 hrs, 1 hr or 10 min before irradiation (all points were done in quadruplicate). 48 hours later, methylene blue staining was performed to determine the relative amount of the viable cells in the wells. The percent of growth inhibition was calculated from the OD650 in control non-irradiated wells, taken as 0% inhibition.

AA′: flagellin fragment (1-177)-Linker-(402-505), SEQ ID NO: 8
incorporation of BrdU in intestine, BrdU after 1 hour ([1]; BrdU injected 1 hour after CBLB502): reduced as compared to control
incorporation/DNA synthesis, BrdU after 4 hr ([1]; BrdU injected 4 hr after CBLB502): even higher than in control
level of BrdU incorporation, irradiated mice ([1]; i.p. 30 min before 15 Gy, NIH-Swiss mice): strongly reduced
DNA synthesis (BrdU incorporation) in crypts, no irradiation ([1]; i.p., BrdU 2 hr after injection, NIH-Swiss mice): nearly undetectable
mean weight loss compared to cisplatinum alone, FVB mice [2]: lower mean weight loss
apoptosis in vascular endothelial cells of villi [3]: almost completely blocked
mean OD 490 (blood urea), CLBL502 alone [4]: less than 0.50
effect on tumor cell growth [5]: no or only a slight inhibitory effect
